Patent US9199946B2, “Pyrimidinone carboxamide inhibitors of endothelial lipase” (BRISTOL-MYERS SQUIBB COMPANY, priority 2012, dated 2015)

What follows are molecules tested against T1, Endothelial lipase (EL) (Homo sapiens, UniProt Q9Y5X9) (assay: Endothelial lipase (EL) enzymatic assay with fluorescent substrate A10070 in DMPG vesicles). Details: conditioned media from HT-1080 cells overexpressing endogenous EL; 20 min preincubation at 37° C.; read-out: EL IC50.
T1 construct: HT-1080 cells, which were transformed by RAGE technology (Athersys) to overexpress endogenous EL; endogenous in cells; conditioned medium used as the enzyme source
T1 sequence (Q9Y5X9 21-500): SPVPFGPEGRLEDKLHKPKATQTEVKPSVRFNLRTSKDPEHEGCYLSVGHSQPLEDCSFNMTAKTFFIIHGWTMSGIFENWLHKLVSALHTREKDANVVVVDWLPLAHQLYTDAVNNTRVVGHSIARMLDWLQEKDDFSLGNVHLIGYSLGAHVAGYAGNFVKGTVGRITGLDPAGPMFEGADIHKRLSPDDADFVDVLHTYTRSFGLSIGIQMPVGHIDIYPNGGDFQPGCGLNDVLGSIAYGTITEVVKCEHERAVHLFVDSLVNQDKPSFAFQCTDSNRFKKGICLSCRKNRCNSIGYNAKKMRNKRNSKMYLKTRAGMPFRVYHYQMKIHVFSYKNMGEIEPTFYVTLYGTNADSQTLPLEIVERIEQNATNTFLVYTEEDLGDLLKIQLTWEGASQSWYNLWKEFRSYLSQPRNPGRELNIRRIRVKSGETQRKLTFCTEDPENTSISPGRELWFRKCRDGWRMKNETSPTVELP
Format: biochemical
Summary of the method: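 EL activity was followed as a fluorescence rate (488/530 nm, reads every 20 s for 10 min, linear slope) on A10070 doped at 0.05 mole fraction into sonicated DMPG vesicles. Compound was first incubated 20 min at 37 °C, pH 8.0 HEPES/CaCl2 buffer, with conditioned media from EL-overexpressing HT-1080 cells.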
`Nc1c(C(=O)N[C@@H]2CCc3c2cccc3C(F)(F)F)[nH]c(=O)[nH]c1=O` [Example 14, (R)-5-amino-2,6-dioxo-N-(4-(trifluoromethyl)-2,3-dihydro-1H-inden-1-yl)-1,2,3,6-tetrahydropyrimidine-4-carboxamide] was tested, and the IC50 was 2.78 µM.
In the case of `O=C(N[C@H]1CC[C@@H](c2ccccc2)CC1)c1[nH]c(=O)[nH]c(=O)c1NCc1cccnc1` [Example 209, 2,6-dioxo-N-(cis-4-phenylcyclohexyl)-5-(pyridin-3-ylmethylamino)-1,2,3,6-tetrahydropyrimidine-4-carboxamide], the IC50 is reported as 0.512 µM.
`Cn1nccc1-c1ccc([C@@H]2CC[C@H](NC(=O)c3[nH]c(=O)[nH]c(=O)c3N)C2)cc1` [Example 163, 5-amino-N-((1S,3R)-3-(4-(1-methyl-1H-pyrazol-5-yl)phenyl)cyclopentyl)-2,6-dioxo-1,2,3,6-tetrahydropyrimidine-4-carboxamide] gave an IC50 of 2.25 µM.

Same assay, conditions: range observed in the EL assay; read-out: EL IC50 values
`O=C(N[C@H]1CC[C@@H](c2ccccc2)CC1)c1[nH]c(=O)[nH]c(=O)c1NCCCN1CCOCC1` [Example 219, 5-(3-morpholinopropylamino)-2,6-dioxo-N-(cis-4-phenylcyclohexyl)-1,2,3,6-tetrahydropyrimidine-4-carboxamide] showed an IC50 of at most 10 µM.
`Nc1c(C(=O)N[C@@H]2CCCc3ccccc32)[nH]c(=O)[nH]c1=O` [Example 13, (R)-5-amino-2,6-dioxo-N-(1,2,3,4-tetrahydronaphthalen-1-yl)-1,2,3,6-tetrahydropyrimidine-4-carboxamide] was tested, and the IC50 was at most 10 µM.
In the case of `Cn1nc(C(F)(F)F)cc1-c1ccc([C@H]2CC[C@@H](NC(=O)c3[nH]c(=O)[nH]c(=O)c3N)C2)cc1` [Example 173, 5-amino-N-((1R,3S)-3-(4-(1-methyl-3-(trifluoromethyl)-1H-pyrazol-5-yl)phenyl)cyclopentyl)-2,6-dioxo-1,2,3,6-tetrahydropyrimidine-4-carboxamide], the IC50 is reported as at most 10 µM.
`Nc1c(C(=O)N[C@@H]2CC[C@@H](c3ccc(Cl)c(Cl)c3)C2)[nH]c(=O)[nH]c1=O` [Example 68, 5-amino-N-((1R,3R)-3-(3,4-dichlorophenyl)cyclopentyl)-2,6-dioxo-1,2,3,6-tetrahydropyrimidine-4-carboxamide] showed an IC50 of at most 10 µM.
For `Nc1c(C(=O)NC2CCC(c3ccc(OCc4ccccc4)cc3)C2)[nH]c(=O)[nH]c1=O` (stereo not drawn) [Example 106, 5-amino-N-(3-(4-(benzyloxy)phenyl)cyclopentyl)-2,6-dioxo-1,2,3,6-tetrahydropyrimidine-4-carboxamide], the IC50 was at most 10 µM.
`Nc1c(C(=O)N[C@@H]2CC[C@H](c3ccccc3)C2)[nH]c(=O)[nH]c1=O` [Example 75, 5-amino-2,6-dioxo-N-((1R,3S)-3-phenylcyclopentyl)-1,2,3,6-tetrahydropyrimidine-4-carboxamide] was tested, and the IC50 was at most 10 µM.
`Nc1c(C(=O)NC2CCC(c3ccccc3)c3ccccc32)[nH]c(=O)[nH]c1=O` (stereo not drawn) [Example 6, 5-amino-2,6-dioxo-N-(4-phenyl-1,2,3,4-tetrahydronaphthalen-1-yl)-1,2,3,6-tetrahydropyrimidine-4-carboxamide] was tested, and the IC50 was at most 10 µM.
`COc1ccc([C@@H]2CC[C@@H](NC(=O)c3[nH]c(=O)[nH]c(=O)c3N)C2)cn1` [Example 80, 5-amino-N-((1R,3R)-3-(6-methoxypyridin-3-yl)cyclopentyl)-2,6-dioxo-1,2,3,6-tetrahydropyrimidine-4-carboxamide] was tested, and the IC50 was at most 10 µM.
Work on `Nc1c(C(=O)N[C@@H]2CCCc3c(OCC4CCCC4)cccc32)[nH]c(=O)[nH]c1=O` [Example 113, (R)-5-amino-N-(5-(cyclopentylmethoxy)-1,2,3,4-tetrahydronaphthalen-1-yl)-2,6-dioxo-1,2,3,6-tetrahydropyrimidine-4-carboxamide] yielded an IC50 of at most 10 µM.
Molecule `O=C(N[C@H]1CC[C@@H](c2ccccc2)C1)c1[nH]c(=O)[nH]c(=O)c1O` [Example 273, 5-hydroxy-2,6-dioxo-N-((1S,3R)-3-phenylcyclopentyl)-1,2,3,6-tetrahydropyrimidine-4-carboxamide] has an IC50 of at most 10 µM.
In the case of `CCOC(=O)[C@H]1CCC[C@H]1NC(=O)c1[nH]c(=O)[nH]c(=O)c1N` [Example 61, (1S,2R)-ethyl 2-(5-amino-2,6-dioxo-1,2,3,6-tetrahydropyrimidine-4-carboxamido) cyclopentanecarboxylate], the IC50 is reported as at most 10 µM.
`COc1ccc2c(c1)C(NC(=O)c1[nH]c(=O)[nH]c(=O)c1N)CC2` (stereo not drawn) [Example 11, 5-amino-N-(6-methoxy-2,3-dihydro-1H-inden-1-yl)-2,6-dioxo-1,2,3,6-tetrahydropyrimidine-4-carboxamide] was tested, and the IC50 was at most 10 µM.
Molecule `COc1ccc2c(c1)[C@H](NC(=O)c1[nH]c(=O)[nH]c(=O)c1O)CCC2` [Example 264, (R)-5-hydroxy-N-(7-methoxy-1,2,3,4-tetrahydronaphthalen-1-yl)-2,6-dioxo-1,2,3,6-tetrahydropyrimidine-4-carboxamide] has an IC50 of at most 10 µM.
Work on `CCNc1c(C(=O)N[C@H]2CC[C@@H](c3ccccc3)CC2)[nH]c(=O)[nH]c1=O` [Example 229, 5-(ethylamino)-2,6-dioxo-N-(cis-4-phenylcyclohexyl)-1,2,3,6-tetrahydropyrimidine-4-carboxamide] yielded an IC50 of at most 10 µM.
In the case of `O=C(N[C@H]1CCCc2c(OCC(F)(F)F)cccc21)c1[nH]c(=O)[nH]c(=O)c1O` [Example 246, (S)-5-hydroxy-2,6-dioxo-N-(5-(2,2,2-trifluoroethoxy)-1,2,3,4-tetrahydronaphthalen-1-yl)-1,2,3,6-tetrahydropyrimidine-4-carboxamide], the IC50 is reported as at most 10 µM.
In the case of `COC(=O)C1CCCC(NC(=O)c2[nH]c(=O)[nH]c(=O)c2N)C1` (stereo not drawn) [Example 58, methyl 3-(5-amino-2,6-dioxo-1,2,3,6-tetrahydropyrimidine-4-carboxamido) cyclohexanecarboxylate], the IC50 is reported as at most 10 µM.
For `Nc1c(C(=O)N[C@@H]2CCc3cc(C(F)(F)F)ccc32)[nH]c(=O)[nH]c1=O` [Example 27, (R)-5-amino-2,6-dioxo-N-(5-(trifluoromethyl)-2,3-dihydro-1H-inden-1-yl)-1,2,3,6-tetrahydropyrimidine-4-carboxamide], the IC50 was at most 10 µM.
Molecule `Nc1c(C(=O)N[C@@H]2CCCc3c(CCc4ccccc4)cccc32)[nH]c(=O)[nH]c1=O` [Example 111, (R)-5-amino-2,6-dioxo-N-(5-phenethyl-1,2,3,4-tetrahydronaphthalen-1-yl)-1,2,3,6-tetrahydropyrimidine-4-carboxamide] has an IC50 of at most 10 µM.
`CC(C)Oc1ccc(C2CCC(NC(=O)c3[nH]c(=O)[nH]c(=O)c3O)C2)cc1` (stereo not drawn) [Example 294, 5-hydroxy-N-(3-(4-isopropoxyphenyl)cyclopentyl)-2,6-dioxo-1,2,3,6-tetrahydropyrimidine-4 carboxamide] showed an IC50 of at most 10 µM.
Work on `Nc1c(C(=O)N[C@@H]2CCc3c2cccc3C(F)(F)F)[nH]c(=O)[nH]c1=O` [Example 14, (R)-5-amino-2,6-dioxo-N-(4-(trifluoromethyl)-2,3-dihydro-1H-inden-1-yl)-1,2,3,6-tetrahydropyrimidine-4-carboxamide] yielded an IC50 of at most 10 µM.
`O=C(N[C@H]1CC[C@@H](c2ccccc2)CC1)c1[nH]c(=O)[nH]c(=O)c1NCc1cccnc1` [Example 209, 2,6-dioxo-N-(cis-4-phenylcyclohexyl)-5-(pyridin-3-ylmethylamino)-1,2,3,6-tetrahydropyrimidine-4-carboxamide] gave an IC50 of at most 10 µM.
`Nc1c(C(=O)N[C@@H]2CCC[C@H]2OCc2ccccc2)[nH]c(=O)[nH]c1=O` [Example 63, 5-amino-N-((1R,2R)-2-(benzyloxy)cyclopentyl)-2,6-dioxo-1,2,3,6-tetrahydropyrimidine-4-carboxamide] showed an IC50 of at most 10 µM.
Molecule `O=C(N[C@@H]1CCC[C@@H](c2ccccc2)C1)c1[nH]c(=O)[nH]c(=O)c1O` [Example 278, 5-hydroxy-2,6-dioxo-N-((1R,3R)-3-phenylcyclohexyl)-1,2,3,6-tetrahydropyrimidine-4-carboxamide] has an IC50 of at most 10 µM.
With `Nc1c(C(=O)N[C@H]2CCCc3ccccc32)[nH]c(=O)[nH]c1=O` [Example 10, (S)-5-amino-2,6-dioxo-N-(1,2,3,4-tetrahydronaphthalen-1-yl)-1,2,3,6-tetrahydropyrimidine-4-carboxamide] the IC50 was at most 10 µM.
`Nc1c(C(=O)NC2CCCc3cc(OCC(F)(F)F)ccc32)[nH]c(=O)[nH]c1=O` (stereo not drawn) [Example 22, 5-amino-2,6-dioxo-N-(6-(2,2,2-trifluoroethoxy)-1,2,3,4-tetrahydronaphthalen-1-yl)-1,2,3,6-tetrahydropyrimidine-4-carboxamide] showed an IC50 of at most 10 µM.
In the case of `O=C(N[C@H]1CC[C@@H](c2ccccc2)CC1)c1[nH]c(=O)[nH]c(=O)c1NCc1ccc(F)cc1` [Example 205, 5-(4-Fluorobenzylamino)-2,6-dioxo-N-(cis-4-phenylcyclohexyl)-1,2,3,6-tetrahydropyrimidine-4-carboxamide], the IC50 is reported as at most 10 µM.
Molecule `O=C(N[C@H]1CC[C@@H](c2ccccc2)CC1)c1[nH]c(=O)[nH]c(=O)c1NCCc1ccccc1Cl` [Example 221, 5-(2-chlorophenethylamino)-2,6-dioxo-N-(cis-4-phenylcyclohexyl)-1,2,3,6-tetrahydropyrimidine-4-carboxamide] has an IC50 of at most 10 µM.
`Nc1c(C(=O)N[C@H]2CC[C@@H](c3cccc(C(F)(F)F)c3)CC2)[nH]c(=O)[nH]c1=O` [Example 30, 5-amino-2,6-dioxo-N-(cis-4-(3-(trifluoromethyl)phenyl)cyclohexyl)-1,2,3,6-tetrahydropyrimidine-4-carboxamide] gave an IC50 of at most 10 µM.
`Nc1c(C(=O)N[C@@H]2CC[C@H](c3ccc(Cl)c(Cl)c3)C2)[nH]c(=O)[nH]c1=O` [Example 74, 5-amino-N-((1R,3S)-3-(3,4-dichlorophenyl)cyclopentyl)-2,6-dioxo-1,2,3,6-tetrahydropyrimidine-4-carboxamide] was tested, and the IC50 was at most 10 µM.
With `Cn1nccc1-c1ccc([C@@H]2CC[C@H](NC(=O)c3[nH]c(=O)[nH]c(=O)c3N)C2)cc1` [Example 163, 5-amino-N-((1S,3R)-3-(4-(1-methyl-1H-pyrazol-5-yl)phenyl)cyclopentyl)-2,6-dioxo-1,2,3,6-tetrahydropyrimidine-4-carboxamide] the IC50 was at most 10 µM.
